The subject of experiment [1] is estrogen receptor. The experiment is described as follows: Luciferase assay (3×ERE TATA luc), Ishikawa cells. The experiment is classed as cell-based. The note with it: for Estrogen receptor subtype through which the substance acts (luciferase assay with siERα / siERβ): Ishikawa endometrial cancer cells, siRNA 50 nM; for Luciferase activity (-fold): Ishikawa, 24 h, non-treated group = 1. How it is done: (§1) MCF-7 (estrogen receptor-positive human breast cancer cell line), Ishikawa (estrogen receptor-positive endometrial cancer cell line), and MG-63 (human osteosarcoma; osteoblast-like cell line) were obtained from the American Type Culture Collection (ATCC). BG-1 (uterine cancer cell line) was furnished by courtesy of Dr. Korach (NIH, USA). Cells were cultured in a Dulbecco's modified Eagle's medium (DMEM) containing 10% fetal bovine serum (FBS), 100 U/ml penicillin and 100 U/ml streptomycin, at 37° C. and 5% CO2.
(§2) The luciferase assay is an assay of estimating an estrogenic activity by measuring the degree of a luciferase activity generated upon binding of a substance having an estrogenic activity to an estrogen receptor. This assay was carried out in the following procedure. Unless otherwise specified, the reagents used were purchased from Gibco (Karlwruhe, Germany).
(§3) The luciferase reporter plasmid used was 3×ERE TATA luc. (Addgene, Cambridge, USA). In order to control transfection efficiency, phRenilla-luciferase-CMV (Promega, Mannheim, Germany) as an internal control plasmid was co-transfected. Cells were cultured at a density of 2×10^5 cells/well in a 6-well plate, in a phenol red-free DMEM (Dulbecco's modified Eagle's medium) supplemented with 100 U/ml penicillin, […] streptomycin, 1 mM sodium pyruvate, 1 mM glutamine, and 10% charcoal dextran-treated fetal bovine serum (FBS). After the cells were cultured to a 50 to 60% confluence, the medium was removed, the cells were placed at 37° C. and 5% CO2 for 6 hours on a serum-free OPTI-MEM medium containing plasmid DNA constructs and 2 μg/ml of polyethyleneimine (PEI), according to the manufacturer's instructions. 1 μg/well of 3×ERE TATA luc and 100 ng of a phRL-CMV plasmid were subjected to transfection.
(§4) After the period of transfection, the medium was replaced with a phenol-free DMEM supplemented with 10% charcoal dextran-treated FBS, and the cells were cultured at 37° C. and 5% CO2 overnight prior to treatment of eupatilin.
(§5) After 18 hours of culture, the medium was replaced with a eupatilin-containing medium. The proteins were extracted 24 hours later, and firefly and renilla luciferase activities were measured on a luminometer (Molecular Devices, Sunnyvale, Calif.) using a Dual Luciferase Assay kit (Promega, Madison, Wis.) according to the manufacturer's instructions.
(§6) All experiments were carried out in triplicate and were repeated at least three times. For the luciferase assay, total cell lysates were prepared, the firefly luciferase activity was assayed and normalized to the renilla luciferase activity according to the manufacturer's instructions (Promega). Further, in order to knock down the cell levels of specific proteins, cells with co-transfection of small interfering RNAs (siRNAs) together with 3×ERE TATA luc and phRL-CMV were prepared and subjected to the same treatment of eupatilin or the like as in the cells which were not treated with siRNAs. The siRNAs used were purchased from Bioneer Corporation (Daejeon, South Korea) and treated at a concentration of 50 nM. The “siERα” means siRNA which inhibits the expression of ERα, and the “siERβ” means siRNA which inhibits the expression of ERβ.

In experiment [2] the test system is estrogen receptor. The experiment is described as follows: Luciferase assay (3×ERE TATA luc), MCF7 cell line. The class given is cell-based, human. The note with it: for Estrogen receptor subtype through which the substance acts (luciferase assay with siERα / siERβ): MCF-7 breast cancer cells, siRNA 50 nM; for Luciferase activity (-fold): MCF7, 24 h, non-treated group = 1. Here is the method: as §1, §2, §3, §4, §5, §6

Experiment [3] concerns MCF7 breast cancer cells. The experiment is described as follows: MTT assay, cancer cell growth. The experiment is classed as cell-based, human. The note with it: 48 h, control DMSO. Here is the method:
Cell viability was estimated by the MTT (3-[4,5-dimethylthiazol-2-yl]-2,5-diphenyltetrazolium bromide; Sigma-Aldrich) assay to confirm cancer cell growth inhibitory effects of eupatilin.
MCF7 breast cancer cells were seeded onto a 96-well plate and incubated for 24 hours. […] On the day of collection, 50 μl of MTT solution (5 mg/ml in PBS) was added to the medium, followed by incubation at 37° C. for 4 hours. The MTT-containing medium was removed and the cells were solubilized in DMSO (100 μl) for 30 min. The cell viability was determined in terms of an optical density at 540 nm using a microplate spectrophotometer (SpectraMax; Molecular Devices, Sunnyvale, Calif.).
Ethanol which is a vehicle was served as control for the E2-treated group, and DMSO was served as control for the eupatilin-treated group.
The viability is expressed in terms of a relative ratio by taking a value of the control to be 100, and the lethality is also expressed in terms of a relative ratio by taking a value of the control to be 100.
(In general: Formazan colour is commonly taken as a measure of viable cells.)

The target of experiment [4] is T1, estrogen receptor (Homo sapiens, UniProt Q92731).
T1 construct: MG-63 (human osteosarcoma; osteoblast-like cell line); endogenous in cells; host or cells: MG-63
T1 sequence (Q92731 whole entry): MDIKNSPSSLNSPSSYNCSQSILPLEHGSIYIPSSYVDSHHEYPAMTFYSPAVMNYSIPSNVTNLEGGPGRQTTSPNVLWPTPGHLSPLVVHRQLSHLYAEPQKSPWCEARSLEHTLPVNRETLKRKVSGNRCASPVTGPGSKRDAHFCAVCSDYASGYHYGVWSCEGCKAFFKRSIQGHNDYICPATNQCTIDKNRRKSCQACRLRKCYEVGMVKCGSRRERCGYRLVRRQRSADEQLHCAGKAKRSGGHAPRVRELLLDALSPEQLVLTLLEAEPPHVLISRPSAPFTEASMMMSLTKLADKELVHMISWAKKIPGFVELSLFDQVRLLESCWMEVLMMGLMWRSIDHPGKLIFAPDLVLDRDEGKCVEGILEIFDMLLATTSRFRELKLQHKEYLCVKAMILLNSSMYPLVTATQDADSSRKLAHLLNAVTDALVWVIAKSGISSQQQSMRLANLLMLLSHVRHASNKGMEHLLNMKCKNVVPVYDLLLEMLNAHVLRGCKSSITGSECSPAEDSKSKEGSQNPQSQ
The experiment is described as follows: Luciferase assay (3×ERE TATA luc), MG63 cell line. The experiment is classed as cell-based. Conditions: for Luciferase activity (-fold): MG63, 24 h, non-treated group = 1. How it is done:
as §1, §2, §3, §4, §5
All experiments were carried out in triplicate and were repeated at least three times. For the luciferase assay, total cell lysates were prepared, the firefly luciferase activity was assayed and normalized to the renilla luciferase activity according to the manufacturer's instructions (Promega). […]

Experiment [5] has as its system MG-63 cells. The experiment can be described thus: ALP activity in osteoblastic cells. The experiment is classed as cell-based, human. Conditions: 24 h. How it is done:
The ALP activity in MG-63 cells treated with eupatilin was measured to confirm that eupatilin enhances a bone density in osteoblastic cells. […] Based on the fact that ALP degrades p-nitrophenylphosphate into p-nitrophenol and phosphate, effects of eupatilin on osteoblasts were observed by measuring an ALP activity in terms of an absorbance ratio between the absorbance of each substance and the absorbance of the control at 405 nm.
After 24 hours of the treatment, lysates were prepared and slowly shaken for 30 min. Then, the ALP activity was assayed by measuring the release of p-nitrophenol from p-nitrophenylphosphate (20 mM in 1M diethanolamine buffer supplemented with MgCl2 at pH 9.8). The absorbance was measured at 405 nm. The standard curve was drawn using various concentrations of […] within the range of 0 to 0.1 U/ml PBS-T. The ALP values were adjusted for the protein content of the corresponding cell lysates. The cultures protein content was quantified by means of a bicinchoninic acid protein assay (Thermo Scientific). The results obtained were compared with those of the control to which only BSA was added at a concentration of 100 nM and no specimen was added.

Experiment [6] has as its system estrogen receptor. The experiment is described as follows: Luciferase assay (3×ERE TATA luc), BG-1 cell line. The class given is cell-based. The note with it: 24 h, non-treated group = 1. How it is done: as §1, §2
as §3, with “1 μg/well of 3×ERE TATA luc and 100 ng of a phRL-CMV plasmid were subjected to transfection.” left out
After 18 hours of culture, the medium was replaced with a eupatilin-containing medium. The proteins were extracted 24 hours later, and firefly and renilla luciferase activities were measured on a luminometer (Molecular Devices, Sunnyvale, Calif.) using a Dual Luciferase Assay kit (Promega, Madison, Wis.) according to the manufacturer's instructions. […]

For the molecule `C[C@]12CC[C@@H]3c4ccc(O)cc4CC[C@H]3[C@@H]1CC[C@@H]2O` [E2, 17-β-estradiol, reference compound], the “Estrogen receptor subtype through which the substance acts (luciferase assay with siERα / siERβ)” value is reported as “largely induces cell proliferation via only ERα” in experiment [1] (E2 10^−7 M, FIG. 2) and “largely induces cell proliferation via only ERα” in experiment [2] (E2 10^−7 M, FIG. 1).

As to `COc1ccc(-c2cc(=O)c3c(O)c(OC)c(O)cc3o2)cc1OC` [Eupatilin, 5,7-dihydroxy-3′,4′,6-trimethoxyflavone], the entries for the “Cell lethality (% relative to control)” value in experiment [3] (eupatilin 0.1 μg/ml) and in experiment [3] (eupatilin 1 μg/ml) were 21.5 % relative to control and 24.5 % relative to control, respectively. The “Luciferase activity (-fold)” value is 2.1 -fold in experiment [4] (eupatilin 0.01 μg/ml); 1.7 -fold in experiment [4] (eupatilin 0.1 μg/ml); 1.6 -fold in experiment [4] (eupatilin 1 μg/ml); 1.4 -fold in experiment [1] (eupatilin 0.01 μg/ml); 1.9 -fold in experiment [1] (eupatilin 0.1 μg/ml); 2.9 -fold in experiment [1] (eupatilin 1 μg/ml). Also, the “Luciferase activity (-fold)” value in experiment [2] (eupatilin 0.01 μg/ml) is 2.4 -fold; in experiment [2] (eupatilin 0.1 μg/ml) it was 2.3 -fold; in experiment [2] (eupatilin 1 μg/ml), 2.8 -fold; in experiment [6] (eupatilin 0.01 μg/ml), 2.9 -fold; in experiment [6] (eupatilin 0.1 μg/ml), 3.3 -fold; in experiment [6] (eupatilin 1 μg/ml), 3.7 -fold. For the same molecule, the “Estrogen receptor subtype through which the substance acts (luciferase assay with siERα / siERβ)” value in experiment [4] (MG-63 osteoblastic cells, siRNA 50 nM, eupatilin 0.1 or 1.0 μg/ml, FIG. 6) is “acts selectively on ERβ”; in experiment [1] (eupatilin 0.1 or 1.0 μg/ml, FIG. 4), “acts equally on both ERα and ERβ”; in experiment [2] (eupatilin 0.1 or 1.0 μg/ml, FIG. 3) it was “acts equally on both ERα and ERβ”. The “ALP activity (% relative to control)” value is recorded as 20.5 % relative to control in experiment [5] (eupatilin 0.2 μg/ml) and 60 % relative to control in experiment [5] (eupatilin 2.0 μg/ml).
